In PubChem BioAssay AID270 (DTP/NCI, 2004):
Where “and” joins values, the source holds several entries; their conditions need not be identical. Identical values can stand only once. Records with an inconclusive call do not appear.

Test system: BDF1 mice, s.c. Lewis lung carcinoma, T/C %
Assay: NCI In Vivo Anticancer Drug Screen. Data for tumor model Lewis Lung Carcinoma (subcutaneous) in B6D2F1 (BDF1) mice
Summary of the method: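 First, mice carry a transplantable tumor. Next, groups receive either compound or vehicle. Finally, survival or tumor dimensions in the dosed animals are divided by the corresponding control figure.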

[1] = endpoint: median survival time, dose: 3.12 mg/kg/injection, schedule: Q01DX009 (ip), vehicle: Klucel (hydroxypropylcellulose) (HPC), higher = longer survival
[2] = endpoint: median survival time, dose: 6.25 mg/kg/injection, schedule: Q01DX009 (ip), vehicle: Klucel (hydroxypropylcellulose) (HPC), higher = longer survival
[3] = endpoint: median survival time, dose: 12.5 mg/kg/injection, schedule: Q01DX009 (ip), vehicle: Klucel (hydroxypropylcellulose) (HPC), higher = longer survival
[4] = endpoint: median survival time, dose: 100.0 mg/kg/injection, schedule: Q01DX009 (ip), vehicle: Klucel (hydroxypropylcellulose) (HPC), higher = longer survival
[5] = endpoint: mean tumor weight, dose: 25.0 mg/kg/injection, schedule: Q01DX011 (ip), vehicle: carboxymethylcellulose (CMC), higher = larger tumour

With COc1cc(NS(C)(=O)=O)ccc1Nc1c2ccccc2nc2ccccc12 the T/C (endpoint: median survival time, dose: 0.13 mg/kg/injection, schedule: Q01DX009 (ip), vehicle: other, higher = longer survival) was 117 % of control, the T/C (endpoint: median survival time, dose: 0.5 mg/kg/injection, schedule: Q01DX009 (ip), vehicle: other, higher = longer survival) was 118 % of control and the T/C (endpoint: median survival time, dose: 0.78 mg/kg/injection, schedule: Q01DX009 (ip), vehicle: saline, higher = longer survival) was 96 % of control. The T/C (endpoint: median survival time, dose: 1.25 mg/kg/injection, schedule: Q01DX011 (ip), vehicle: Klucel (hydroxypropylcellulose) (HPC), higher = longer survival) was 91 % of control, the T/C (endpoint: median survival time, dose: 1.56 mg/kg/injection, schedule: Q01DX009 (ip), vehicle: saline, higher = longer survival) was 100 % of control and the T/C (endpoint: median survival time, dose: 2.5 mg/kg/injection, schedule: Q01DX011 (ip), vehicle: Klucel (hydroxypropylcellulose) (HPC), higher = longer survival) was 96 % of control. The T/C [1] was 118 % of control, the T/C (endpoint: median survival time, dose: 3.13 mg/kg/injection, schedule: Q01DX009 (ip), vehicle: saline, higher = longer survival) was 103 % of control and 107 % of control and the T/C [2] was 115 % of control. For the same compound, the T/C [3] was 214 % of control, the T/C (endpoint: median tumor weight (est.), dose: 1.25 mg/kg/injection, schedule: Q01DX011 (ip), vehicle: Klucel (hydroxypropylcellulose) (HPC), higher = larger tumour) was 88 % of control and the T/C (endpoint: median tumor weight (est.), dose: 2.5 mg/kg/injection, schedule: Q01DX011 (ip), vehicle: Klucel (hydroxypropylcellulose) (HPC), higher = larger tumour) was 110 % of control. The T/C (endpoint: median tumor weight (est.), dose: 5.0 mg/kg/injection, schedule: Q01DX011 (ip), vehicle: Klucel (hydroxypropylcellulose) (HPC), higher = larger tumour) was 504 % of control.

COc1c(OC)c(OC)c2c(=O)cc(-c3ccc(OC(C)=O)cc3)oc2c1OC was tested, and the T/C (endpoint: mean tumor weight, dose: 50.0 mg/kg/injection, schedule: Q01DX010 (sc), vehicle: steriod suspending solution, higher = larger tumour) was 97 % of control, the T/C (endpoint: mean tumor weight, dose: 100.0 mg/kg/injection, schedule: Q01DX010 (sc), vehicle: steriod suspending solution, higher = larger tumour) was 74 % of control and the T/C (endpoint: mean tumor weight, dose: 200.0 mg/kg/injection, schedule: Q01DX010 (sc), vehicle: steriod suspending solution, higher = larger tumour) was 76 % of control. For the same compound, the T/C (endpoint: mean tumor weight, dose: 400.0 mg/kg/injection, schedule: Q01DX010 (sc), vehicle: steriod suspending solution, higher = larger tumour) was 77 % of control.

With COc1ccc2c(Cc3ccccc3)cncc2c1O the T/C [3] was 90 % of control, the T/C (endpoint: median survival time, dose: 25.0 mg/kg/injection, schedule: Q01DX009 (ip), vehicle: Klucel (hydroxypropylcellulose) (HPC), higher = longer survival) was 101 % of control and the T/C (endpoint: median survival time, dose: 50.0 mg/kg/injection, schedule: Q01DX009 (ip), vehicle: Klucel (hydroxypropylcellulose) (HPC), higher = longer survival) was 91 % of control. For the same compound, the T/C [4] was 101 % of control.

In the case of Cc1cc(N)c2cc(NC(=O)CCCCCCCCC(=O)Nc3ccc4nc(C)cc(N)c4c3)ccc2n1, the T/C (endpoint: mean tumor weight, dose: 12.5 mg/kg/injection, schedule: Q01DX011 (ip), vehicle: other, higher = larger tumour) is reported as 108 % of control, the T/C (endpoint: mean tumor weight, dose: 50.0 mg/kg/injection, schedule: Q01DX011 (ip), vehicle: other, higher = larger tumour) is reported as 61 % of control and the T/C (endpoint: mean tumor weight, dose: 100.0 mg/kg/injection, schedule: Q01DX011 (ip), vehicle: other, higher = larger tumour) is reported as 38 % of control. The T/C (endpoint: median survival time, dose: 0.05 mg/kg/injection, schedule: Q01DX009 (ip), vehicle: Klucel (hydroxypropylcellulose) (HPC), higher = longer survival) was 105 % of control, the T/C (endpoint: median survival time, dose: 0.1 mg/kg/injection, schedule: Q01DX009 (ip), vehicle: Klucel (hydroxypropylcellulose) (HPC), higher = longer survival) was 102 % of control and the T/C (endpoint: median survival time, dose: 0.19 mg/kg/injection, schedule: Q01DX009 (ip), vehicle: Klucel (hydroxypropylcellulose) (HPC), higher = longer survival) was 100 % of control. The T/C (endpoint: median survival time, dose: 0.38 mg/kg/injection, schedule: Q01DX009 (ip), vehicle: Klucel (hydroxypropylcellulose) (HPC), higher = longer survival) was 105 % of control, the T/C (endpoint: median survival time, dose: 0.75 mg/kg/injection, schedule: Q01DX009 (ip), vehicle: Klucel (hydroxypropylcellulose) (HPC), higher = longer survival) was 92 % of control and the T/C (endpoint: median survival time, dose: 1.5 mg/kg/injection, schedule: Q01DX009 (ip), vehicle: Klucel (hydroxypropylcellulose) (HPC), higher = longer survival) was 96 % of control. For the same compound, the T/C (endpoint: median survival time, dose: 3.0 mg/kg/injection, schedule: Q01DX009 (ip), vehicle: Klucel (hydroxypropylcellulose) (HPC), higher = longer survival) was 92 % of control, the T/C [1] was 94 % of control and the T/C [2] was 104 % of control. The T/C [3] was 105 % of control and the T/C [4] was 118 % of control.

For COC1C(OC(=O)c2ccc(C)[nH]2)C(O)C(Oc2ccc3c(O)c(NC(=O)c4ccc(O)c(CC=C(C)C)c4)c(=O)oc3c2Cl)OC1(C)C (configuration not stated), the T/C (endpoint: median survival time, dose: 0.38 mg/kg/injection, schedule: Q01DX009 (ip), vehicle: other, higher = longer survival) was 113 % of control, the T/C (endpoint: median survival time, dose: 0.75 mg/kg/injection, schedule: Q01DX009 (ip), vehicle: other, higher = longer survival) was 91 % of control and the T/C (endpoint: median survival time, dose: 3.0 mg/kg/injection, schedule: Q01DX007 (ip), vehicle: other, higher = longer survival) was 88 % of control. For the same compound, the T/C (endpoint: median survival time, dose: 3.0 mg/kg/injection, schedule: Q01DX009 (ip), vehicle: other, higher = longer survival) was 117 % of control, the T/C (endpoint: median survival time, dose: 6.0 mg/kg/injection, schedule: Q01DX007 (ip), vehicle: other, higher = longer survival) was 93 % of control and the T/C (endpoint: median survival time, dose: 6.0 mg/kg/injection, schedule: Q01DX009 (ip), vehicle: other, higher = longer survival) was 98 % of control. For the same compound, the T/C (endpoint: median survival time, dose: 12.0 mg/kg/injection, schedule: Q01DX007 (ip), vehicle: other, higher = longer survival) was 98 % of control, the T/C (endpoint: median survival time, dose: 24.0 mg/kg/injection, schedule: Q01DX007 (ip), vehicle: other, higher = longer survival) was 91 % of control and the T/C (endpoint: median survival time, dose: 24.0 mg/kg/injection, schedule: Q01DX009 (ip), vehicle: other, higher = longer survival) was 88 % of control. The T/C (endpoint: median survival time, dose: 25.0 mg/kg/injection, schedule: Q01DX009 (ip), vehicle: other, higher = longer survival) was 90 % of control, the T/C (endpoint: median survival time, dose: 48.0 mg/kg/injection, schedule: Q01DX007 (ip), vehicle: other, higher = longer survival) was 107 % of control and the T/C (endpoint: median survival time, dose: 50.0 mg/kg/injection, schedule: Q01DX009 (ip), vehicle: other, higher = longer survival) was 105 % of control.

COc1ccc(CN2CCCN(Cc3ccc(OC)cc3)C2c2ccccc2)cc1 was tested, and the T/C (endpoint: mean tumor weight, dose: 111.0 mg/kg/injection, schedule: Q01DX011 (ip), vehicle: other, higher = larger tumour) was 120 % of control and the T/C (endpoint: mean tumor weight, dose: 250.0 mg/kg/injection, schedule: Q01DX011 (ip), vehicle: other, higher = larger tumour) was 83 % of control.

With CC(=O)O[C@@H]1[C@H]2O[C@H]2[C@H]2O[C@@]2(COC(=O)c2ccccc2)[C@H]1OC(C)=O the T/C (endpoint: mean tumor weight, dose: 150.0 mg/kg/injection, schedule: Q01DX011 (ip), vehicle: carboxymethylcellulose (CMC), higher = larger tumour) was 24 % of control, the T/C (endpoint: mean tumor weight, dose: 200.0 mg/kg/injection, schedule: Q01DX011 (ip), vehicle: carboxymethylcellulose (CMC), higher = larger tumour) was 307 % of control and the T/C (endpoint: mean tumor weight, dose: 300.0 mg/kg/injection, schedule: Q01DX011 (ip), vehicle: carboxymethylcellulose (CMC), higher = larger tumour) was 119 % of control. The T/C (endpoint: median survival time, dose: 3.12 mg/kg/injection, schedule: Q01DX009 (ip), vehicle: gum acacia, higher = longer survival) was 95 % of control, the T/C (endpoint: median survival time, dose: 6.25 mg/kg/injection, schedule: Q01DX009 (ip), vehicle: gum acacia, higher = longer survival) was 92 % of control and the T/C (endpoint: median survival time, dose: 12.5 mg/kg/injection, schedule: Q01DX009 (ip), vehicle: gum acacia, higher = longer survival) was 115 % of control. The T/C (endpoint: median survival time, dose: 25.0 mg/kg/injection, schedule: Q01DX009 (ip), vehicle: gum acacia, higher = longer survival) was 87 % of control.

For CC[C@@H]1O[C@@H]([C@@H]2CC[C@](O)([C@]3(C)CC[C@@H]([C@@H](C)[C@@]4(O)CC[C@H](C)[C@@H](C[C@@]5(O)O[C@@H]([C@@H](C)[C@H](O)C[C@H]6CC[C@H](C)[C@@H]([C@@H](C)C(=O)O)O6)CC[C@@H]5C)O4)O3)O2)CC[C@@]1(C)O, the T/C (endpoint: median survival time, dose: 0.12 mg/kg/injection, schedule: Q01DX009 (ip), vehicle: saline, higher = longer survival) was 106 % of control, the T/C (endpoint: median survival time, dose: 0.25 mg/kg/injection, schedule: Q01DX009 (ip), vehicle: saline, higher = longer survival) was 110 % of control and the T/C (endpoint: median survival time, dose: 0.5 mg/kg/injection, schedule: Q01DX009 (ip), vehicle: saline, higher = longer survival) was 106 % of control. The T/C (endpoint: median survival time, dose: 1.0 mg/kg/injection, schedule: Q01DX009 (ip), vehicle: saline, higher = longer survival) was 97 % of control.

In the case of CC(NC(=O)C1(N)CCCC1)C(=O)O (configuration not stated), the T/C (endpoint: mean tumor weight, dose: 6.0 mg/kg/injection, schedule: Q01DX011 (ip), vehicle: carboxymethylcellulose (CMC), higher = larger tumour) is reported as 59 % of control and the T/C [5] is reported as 60 % of control.

For COc1ccc2c(c1)CC[C@@H]1[C@@H]2CC[C@@]2(C)[C@H]1CC[C@@]2(O)C(F)=C(F)F, the T/C (endpoint: median survival time, dose: 12.5 mg/kg/injection, schedule: Q01DX009 (sc), vehicle: steriod suspending solution, higher = longer survival) was 93 % of control.

Nc1ncnc2c1ccn2C1OC(CO)C(O)C1O (configuration not stated) was tested, and the T/C (endpoint: mean tumor weight, dose: 0.32 mg/kg/injection, schedule: Q01DX011 (ip), vehicle: saline, higher = larger tumour) was 77 % of control, the T/C (endpoint: mean tumor weight, dose: 0.63 mg/kg/injection, schedule: Q01DX011 (ip), vehicle: saline, higher = larger tumour) was 60 % of control and the T/C (endpoint: mean tumor weight, dose: 1.25 mg/kg/injection, schedule: Q01DX011 (ip), vehicle: saline, higher = larger tumour) was 84 % of control. For the same compound, the T/C (endpoint: median survival time, dose: 0.25 mg/kg/injection, schedule: Q01DX011 (ip), vehicle: other, higher = longer survival) was 98 % of control, the T/C (endpoint: median survival time, dose: 0.5 mg/kg/injection, schedule: Q01DX011 (ip), vehicle: other, higher = longer survival) was 89 % of control and the T/C (endpoint: median survival time, dose: 1.0 mg/kg/injection, schedule: Q01DX011 (ip), vehicle: other, higher = longer survival) was 110 % of control. For the same compound, the T/C (endpoint: median survival time, dose: 2.0 mg/kg/injection, schedule: Q01DX011 (ip), vehicle: other, higher = longer survival) was 101 % of control.

For O=C1c2c(Cl)c(Cl)c(Cl)c(Cl)c2C(=O)N1c1nccs1, the T/C [5] was 62 % of control and the T/C (endpoint: mean tumor weight, dose: 50.0 mg/kg/injection, schedule: Q01DX011 (ip), vehicle: carboxymethylcellulose (CMC), higher = larger tumour) was 50 % of control.
